Patent US20040121965A1, “Method of treating resistant tumors” (Wyeth Holdings Corporation, priority 2002, published 2004)
Like-named read-outs stand apart in the source and are kept apart here.

Key:
[1] = tested on: KB-3-1; test: Cell survival assay (SRB), KB-3-1; type: cell-based, human
Source text: Cells lines with previously known mechanisms of resistance. […] Res. 8: 207-218,1996); KB-3-1 (parental derived from an epidermoid carcinoma), KB-8.5, KB-V1 (Akiyama S-I, Fojo A, Hanover J A, Pastan I, Gottesman M M. Isolation and genetic characterization of human KB cell lines resistant to multiple drugs. Somatic Cell Mol. Gen., 11: 117-126,1985; Shen D-W, Cardarelli C, Hwang J, Cornwell M, Richert N, Ishii S, Pastan I, Gottesman MM. […] J. Biol. Chem., 261: 7762-7770, 1986); and HL-60 (parental derived from human leukemia) and HL60/AR (McGrath T., Center M. S. Adriamycin resistance in HL60 cells in the absence of detectable P-glycoprotein. Biochem. Res. Commun., 145:1171-1176,1987); A549 and A549.EpoB40 (He L., Yang C.-P.H., Horwitz S. B. Mutations in p-tubulin map to domains involved in regulation of microtubule stability in epothilone-resistant cell lines. Molecular Cancer Therapeutics. 1: 3-10, 2001). HCT-15 human colon carcinoma and DLD-1 human colon carcinoma are obtained from American Tissue Culture Collection. The MX-1W carcinoma is a Wyeth variant orginally obtained as MX-1 breast carcinoma from the National Cancer Institute. Cell lines selected for resistance to Representative Example 129. KB-3-1 cells are selected for resistance to Example 129 by chronically exposing cells to increasing concentrations of Example 129.
2.2. Cell Survival Assay: Standard Pharmacological Test Procedure. The concentration of candidate inhibitor required to inhibit 50% of cell growth (IC50) is done according to previously reported methods. […] Compounds are serially diluted into media as 2× stocks and 100 μl added to cells in duplicate. Compounds are incubated with cells for 3 days. At the end of the incubation period the sulforhodamine B (SRB) assay, which measures protein content as an assessment of cell survival, is performed as described previously (Skehan P, Storeng R, Scudiero D, Monks A, McMahon J, Vistica D, Warren J T, Bokesch H, Kenney S, Boyd MR. New calorimetric cytotoxicity assay for anticancer-drug screening. J Natl Cancer Inst 1990 Jul 4;82(13):1107-12) with some modification as follows. For KB-3-1 cells with 20% FCS, media is gently decanted and replaced with 200 μl of serum-free media mixed with cold 50% TCA for a final concentration of 10% TCA. The plates are incubated for 1 hr at 4° C., followed by washing 5 times in cold distilled water, then air dried overnight. The fixed cells are stained for 10 min with 80 μl of 0.04% SRB solution prepared in 1% glacial acetic acid. Stain is discarded and plates washed 5 times in 1% glacial acetic acid, then air-dried until completely dry. Stained cell product is dissolved in 150 μl of 10 mM Trizma Base and placed on a shaker for 20 minutes until fully dissolved. Absorbance is read on a Victor V multi-label plate reader (Perkin Elmer, Gaithersburg, Md.).

[2] = tested on: KB-8-5 (MDR1+); test: Cell survival assay (SRB), KB-8-5 (MDR1+); conditions: for IC50: Homo sapiens
[3] = tested on: KB-V1 (MDR1++); test: Cell survival assay (SRB), KB-V1 (MDR1++); conditions: for IC50: Homo sapiens
[4] = Homo sapiens, KB 3-1, KB-3-1 cells (paclitaxel-sensitive parent), read-out: In vitro IC50 (nM) KB-3-1
[5] = MDR1, read-out: In vitro IC50 (nM) KB85
[6] = read-out: In vitro IC50 (nM) KBV1

SMILES | IC50 [1, 4] | Ratio KB85/KB [2] | IC50 [2, 5] | Ratio KBV1/KB [3] | IC50 [3, 6] | further results
CN[C@H](C(=O)N[C@H](C(=O)N(C)[C@H](/C=C(\C)C(=O)O)C(C)C)C(C)(C)c1ccc(OC)cc1)C(C)(C)c1ccccc1 [Example 87, N,β,β-trimethyl-L-phenylalanyl-N-[(1S,2E)-3-carboxy-1-isopropyl-2-butenyl]-N,O,β,β-tetramethyl-L-tyrosinamide] | 27.2 nM | 2.1 | 56.3 nM | 72.4 | 1970 nM | –
CN[C@H](C(=O)N[C@@H](CC(C)C)C(=O)N(C)[C@H](/C=C(\C)C(=O)O)C(C)C)C(C)(C)c1ccccc1.O=C(O)C(F)(F)F [Example 96, N,β,β-trimethyl-L-phenylalanyl-N^1-[(1S,2E)-3-carboxy-1-isopropylbut-2-enyl]-N^1-methyl-L-leucinamide Trifluoroacetic Acid] | 19 nM | 1.6 | 30 nM | 76.1 | 1440 nM | –
CCC[C@H](NC(=O)[C@@H](NC)C(C)(C)c1ccccc1)C(=O)N(C)[C@H](/C=C(\C)C(=O)O)C(C)C.O=C(O)C(F)(F)F [Example 97, N,β,β-trimethyl-L-phenylalanyl-N^1-[(1S,2E)-3-carboxy-1-isopropylbut-2-enyl]-N^1-methyl-L-norvalinamide Trifluoroacetic Acid] | 15 nM | 1.3 | 19 nM | 38.3 | 575 nM | –
CN[C@H](C(=O)N[C@H](C(=O)N(C)[C@H](/C=C(\C)C(=O)O)C(C)C)C(C)(C)C)C(C)(C)c1cccc(O)c1 [Example 47, 3-Hydroxy-N,β,β-trimethylphenylalanyl-N^1-[(1S,2E)-3-carboxy-1-isopropyl-2-butenyl]-N^1,3-dimethyl-L-valinamide] | 7 nM | 5.4 | 37.5 nM | 329.7 | 2310 nM | –
CN[C@H](C(=O)N[C@H](C(=O)N(C)[C@H](/C=C(\C)C(=O)O)C(C)C)C(C)(C)C)C1(c2ccccc2)CCCC1 [Example 71, (2E,4S)-2,5-dimethyl-4-(methyl{3-methyl-N-[(2S)-2-(methylamino)-2-(1-phenylcyclopentyl)ethanoyl]-L-valyl}amino)-2-hexenoic acid] | 141 nM | 1.3 | 186 nM | 21.2 | ≥ 3000 nM | –
CN[C@H](C(=O)N[C@H](C(=O)N(C)[C@H](/C=C(\C)C(=O)N[C@@H](CCSC)C(=O)O)C(C)C)C(C)(C)C)C(C)(C)c1ccccc1 [Example 145, N,β,β-trimethyl-L-phenylalanyl-N 1-((1S,2E)4-{[(1S)-1-carboxy-3-(methylthio)propyl]amino}-1-isopropyl-3-methyl-4-oxobut-2-enyl)-N 1,3-dimethyl-L-valinamide] | 131 nM | 12.2 | 1600 nM | 22.9 | > 3000 nM | –
CN[C@H](C(=O)N[C@H](C(=O)N(C)[C@H](/C=C(\C)C(=O)O)C(C)C)C(C)(C)O)C(C)(C)c1ccccc1 [Example 156, N,β,β-trimethyl-L-phenylalanyl-N^1-[(1S,2E)-3-carboxy-1-isopropylbut-2-enyl]-3-hydroxy-N^1-methyl-L-valinamide] | 58 nM | 1.6 | 95 nM | 51.7 | > 3000 nM | –
CN[C@H](C(=O)N[C@H](C(=O)N(C)[C@H](/C=C(\C)C(N)=O)C(C)C)C(C)(C)C)C(C)(C)c1ccccc1 [Example 107, (E,4S)-4-[((2S)-3,3-dimethyl-2-{[(2S)-3-methyl-2-(methylamino)-3-phenylbutanoyI]amino}butanoyl)(methyl)amino]-2,5-dimethyl-2-hexenamide] | 64.7 nM | 2.5 | 162 nM | 46.4 | ≥ 3000 nM | –
CCN[C@H](C(=O)N[C@H](C(=O)N(C)[C@H](/C=C(\C)C(=O)OCC)C(C)C)C(C)(C)C)C(C)(C)c1ccccc1 [Example 31, N-Ethyl-β,β-dimethylphenylalanyl-N^1-[(1S,2E)-4-ethoxy-1-isopropyl-3-methyl4-oxo-2-butenyl]-N^1,3-dimethyl-L-valinamide] | 436 nM | 4.3 | 1860 nM | 6.9 | ≥ 3000 nM | –
CCN[C@H](C(=O)N[C@H](C(=O)N(C)[C@H](/C=C(\C)C(=O)O)C(C)C)C(C)(C)C)C(C)(C)c1ccccc1 [Example 32, N-Ethyl-β,β-dimethylphenylalanyl-N^1-[(1S,2E)-3-carboxy-1-isopropyl-2-butenyl]-N^1,3-dimethyl-L-valinamide] | – | 2.6 | – | 64.5 | – | –
CCOC(=O)/C(C)=C/[C@H](C(C)C)N(C)C(=O)[C@@H](NC(=O)[C@@H](NC)C(C)(C)c1ccc(C)c(C)c1)C(C)(C)C [Example 13a, N,β, β,3,4-Pentamethyl-L-phenylalanyl-N^1-[(1S,2E)4-ethoxy-1-isopropyl-3-methyl-4-oxo-2-butenyl]-N^1,3-dimethyl-L-valinamide] | 9.1 nM | 24.0 | 219 nM | 191.0 | 1740 nM | –
CC(C)C[C@H](N)C(=O)N[C@H](C(=O)N[C@H](CC(C)C(=O)O)C(C)C)C(C)(C)C (stereo partly drawn) [Example 138, (4R)4-[((2S)-2-{[(2S)-2-amino4-methylpentanoyl]amino}-3,3-dimethylbutanoyl)amino]-2,5-dimethylhexanoic Acid] | – | – | 1510 nM | – | ≥ 3000 nM | IC50 ([1]; Homo sapiens, KB-3-1 cells (paclitaxel-sensitive parent), read-out: In vitro IC50 (nM) KB-3-1): 692 nM; Ratio KB85/KB ([2]; ratio of IC50 in KB85 to IC50 in KB-3-1): 2.2; Ratio KBV1/KB ([3]; ratio of IC50 in KBV1 to IC50 in KB-3-1): 4.3
CN[C@H](C(=O)N[C@H](C(=O)N(C)[C@H](/C=C(\C)C(=O)O)CC(C)C)C(C)(C)C)C(C)(C)c1ccccc1 [Example 92, 4-{[3,3-Dimethyl-2-(3-methyl-2-methylamino-3-phenyl-butyrylamino)-butyryl]-methyl-amino}-2,6-dimethyl-hept-2-enoic Acid] | 126 nM | 2.1 | 264 nM | 23.9 | ≥ 3000 nM | –
CN[C@H](C(=O)N[C@H](C(=O)N(C)[C@H](/C=C(\C)C(=O)NC(CCSC)C(=O)OC)C(C)C)C(C)(C)C)C(C)(C)c1ccccc1 (stereo partly shown) [Example 144, 2-(4-{[3,3-Dimethyl-2-(3-methyl-2-methylamino-3-phenyl-butyrylamino)-butyryl]-methyl-amino}-2,5-dimethyl-hex-2-enoylamino)-4-methylsulfanyl-butyric Acid Methyl] | – | 14.9 | 55 nM | – | – | –
COc1cc2c(c(OC)c1OC)-c1ccc(OC)c(=O)cc1[C@@H](NC(C)=O)CC2 [colchicine, reference compound] | – | – | – | – | – | resistance of KB-8-5 cells [2]: 9.8 fold; IC50 ([2]; MDR1, read-out: KB-8-5 (MDR1+) IC50, nM (N)): 62.7 nM; IC50 ([3]; read-out: KB-V1 (MDR1++) IC50, nM (N)): 2440 nM
COc1ccc(C[C@H]2NC(=O)/C=C/C[C@@H]([C@H](C)[C@H]3O[C@@H]3c3ccccc3)OC(=O)[C@H](CC(C)C)OC(=O)[C@H](C)CNC2=O)cc1Cl [Cryptophycin-1] | – | – | – | – | – | IC50 ([1]; KB-3-1 parental, Table 8, read-out: KB-3-1 IC50): 0.0064 ± 0.0045 nM
CCN[C@H](C(=O)N[C@H](C(=O)N(C)[C@H](/C=C(\C)C(=O)O)C(C)C)C(C)(C)C)C(C)(C)c1ccccc1 [Example 151, N-ethyl-β,β-dimethyl-L-phenylalanyl-N^1-[(1S,2E)-3-carboxy-1-isopropylbut-2-enyl]-N^1,3-dimethyl-L-valinamide] | – | 1.5 | – | 11.3 | – | –
